For seven compounds, MIC results are on record in patent US11535643B2, “Macrolides with modified desosamine sugars and uses thereof” (President and Fellows of Harvard College, priority 2015, dated 2022).

Assay type in all cases: cell-based
One assay relates to E. coli. Kind of assay: Broth dilution MIC determination (CLSI) against E. coli strains. The source says: (§1) Minimum inhibitory concentrations (MICs) for macrolides described herein have been determined for unique strains of S. aureus, S. pneumoniae, S. pyogenes, E. faecalis, E. coli, A. baumannii, K. pneumoniae, P. aeruginosa, and H. influenzae, including several multidrug-resistant strains, with a special focus on macrolide resistant mechanisms. Azithromycin and solithromycin were included as control compounds. CLSI standard procedures for broth dilution MIC determination were used. Data for exemplary compounds described herein is shown in Tables M1-M7 and in Tables N1-N4.

The next assay deals with K. pneumoniae. Kind of assay: Broth dilution MIC determination (CLSI) against K. pneumoniae strains. From the text: Minimum inhibitory concentrations (MICs) for macrolides described herein have been determined for unique strains of S. aureus, S. pneumoniae, S. pyogenes, E. faecalis, E. coli, A. baumannii, K. pneumoniae, P. aeruginosa, and H. influenzae, including several multidrug-resistant strains, with a special focus on macrolide resistant mechanisms. Azithromycin and solithromycin were included as control compounds. CLSI standard procedures for broth dilution MIC determination were used.

The test system of the next assay is S. aureus. Kind of assay: Broth dilution MIC determination (CLSI) against S. aureus strains.
Source text: as §1

The next assay has as its system A. baumannii. Kind of assay: Broth dilution MIC determination (CLSI) against A. baumannii strains.
Source text: as §1

In a further assay the test system is P. aeruginosa. Kind of assay: Broth dilution MIC determination (CLSI) against P. aeruginosa strains.
Source text: as §1

Setting [1] is: E. coli ATCC25922, strain MP-4 (Table N4).
Where [2] appears, read: E. coli Clinical, strain MP-541 (Table N4).
Where [3] appears, read: E. coli clinical-cErmB, strain MP-532 (Table N4).
Where [4] appears, read: E. coli tolC, strain MP-9 (Table N4).
Setting [5] is: K. pneumoniae ATCC 10031, strain MP-14 (Table N4).
Setting [6] is: K. pneumoniae Clinical, strain MP-548 (Table N4).
Setting [7] is: K. pneumoniae Clinical-MDR, strain MP-546 (Table N4).
Setting [8] is: S. aureus ATCC29213, strain MP-12 (Table N4).
Setting [9] is: S. aureus BAA 977 iErm, strain MP-17 (Table N4).
Setting [10] is: S. aureus Clinical-cErm, strain MP-513 (Table N4).
The mark [11] stands for this setting: S. aureus USA300-msr(a), strain MP-549 (Table N4).
Setting [12] is: A. baumannii ATCC 19606, strain MP-15 (Table N4).
Where [13] appears, read: A. baumannii Clinical-AZT low, strain MP-577 (Table N4).
Setting [14] is: A. baumannii Clinical-MDR, strain MP-576 (Table N4).
Setting [15] is: P. aeruginosa ATCC27853, strain MP-3 (Table N4).
Setting [16] is: P. aeruginosa PAO1, strain MP-7 (Table N4).
Setting [17] is: P. aeruginosa mex-oprM-deletion, strain MP-8 (Table N4).

The structures appear in SMILES notation. In brackets after ≈: the same amount, converted by molar mass.

Take `CCC1OC(=O)C(C)C(=O)C(C)C(OC2OC(C)CC(Nc3cnccn3)C2O)C(C)(OC)CC(C)CNC(C)C2N(CCCCn3cc(-c4cccc(N)c4)nn3)C(=O)OC12C` (centres unmarked) [FSM-120410]: the MIC against E. coli (setting [1]), in the assay with E. coli (setting [2]), in the assay on E. coli (setting [3]), in the assay on E. coli (setting [4]), against K. pneumoniae (setting [5]) and in the assay with K. pneumoniae (setting [6]) was over 64 µg/mL in each case. Further, the MIC against K. pneumoniae (setting [7]), in the assay with S. aureus (setting [8]), in the assay on S. aureus (setting [9]), with S. aureus (setting [10]), in the assay with S. aureus (setting [11]) and against A. baumannii (setting [12]) was over 64 µg/mL in each case. The MIC with A. baumannii (setting [13]), with A. baumannii (setting [14]), in the assay on P. aeruginosa (setting [15]), in the assay on P. aeruginosa (setting [16]) and against P. aeruginosa (setting [17]) was over 64 µg/mL each time.
As to `CCC1OC(=O)C(C)C(=O)C(C)C(OC2OC(C)CC(N3CCC(O)C3)C2O)C(C)(OC)CC(C)CNC(C)C2N(CCCCn3cc(-c4cccc(N)c4)nn3)C(=O)OC12C` (centres unmarked) [FSM-120416], the MIC in the assay with E. coli (setting [1]) was over 64 µg/mL; with E. coli (setting [2]), over 64 µg/mL; against E. coli (setting [3]) it was over 64 µg/mL; in the assay on E. coli (setting [4]), 8 µg/mL (≈ 9.19 µM); against K. pneumoniae (setting [5]) it was 32 µg/mL (≈ 36.8 µM); in the assay with K. pneumoniae (setting [6]) it was over 64 µg/mL. Further, the minimal inhibitory concentration (MIC) with K. pneumoniae (setting [7]), against S. aureus (setting [8]), in the assay on S. aureus (setting [9]), against S. aureus (setting [10]), against S. aureus (setting [11]) and in the assay on A. baumannii (setting [12]) was over 64 µg/mL throughout. Besides, the MIC in the assay with A. baumannii (setting [13]), against A. baumannii (setting [14]), against P. aeruginosa (setting [15]), against P. aeruginosa (setting [16]) and with P. aeruginosa (setting [17]) was over 64 µg/mL throughout.
On to `CCC1OC(=O)C(C)C(=O)C(C)C(OC2OC(C)CC(N3CCC(O)C3)C2O)C(C)(OC)CC(C)CNC(C)C2N(CCCCn3cc(-c4cccc(N)c4)nn3)C(=O)OC12C` (centres unmarked) [FSM-120417], for which the MIC in the assay on E. coli (setting [1]) is 16 µg/mL (≈ 18.4 µM); with E. coli (setting [2]), 16 µg/mL (≈ 18.4 µM); with E. coli (setting [3]), over 64 µg/mL; against E. coli (setting [4]), 2 µg/mL (≈ 2.3 µM); in the assay on K. pneumoniae (setting [5]) it was 4 µg/mL (≈ 4.6 µM); in the assay with K. pneumoniae (setting [6]), 64 µg/mL (≈ 73.6 µM). For the same compound, the MIC was over 64 µg/mL in the assay on K. pneumoniae (setting [7]); 32 µg/mL (≈ 36.8 µM) in the assay with S. aureus (setting [8]); 64 µg/mL (≈ 73.6 µM) with S. aureus (setting [9]); over 64 µg/mL against S. aureus (setting [10]); 64 µg/mL (≈ 73.6 µM) in the assay on S. aureus (setting [11]); 32 µg/mL (≈ 36.8 µM) against A. baumannii (setting [12]). Besides, the MIC in the assay with A. baumannii (setting [13]) was 32 µg/mL (≈ 36.8 µM); against A. baumannii (setting [14]), over 64 µg/mL; in the assay with P. aeruginosa (setting [15]), over 64 µg/mL; in the assay on P. aeruginosa (setting [16]) it was over 64 µg/mL; against P. aeruginosa (setting [17]), 32 µg/mL (≈ 36.8 µM).
On to `CCC1OC(=O)C(C)C(=O)C(C)C(OC2OC(C)CC(N(C)CCO)C2O)C(C)(OC)CC(C)CNC(C)C2N(CCCCn3cc(-c4cccc(N)c4)nn3)C(=O)OC12C` (centres unmarked) [FSM-120418], for which the MIC was 8 µg/mL (≈ 9.32 µM) against E. coli (setting [1]); 8 µg/mL (≈ 9.32 µM) in the assay with E. coli (setting [2]); over 64 µg/mL in the assay on E. coli (setting [3]); 1 µg/mL (≈ 1.17 µM) in the assay on E. coli (setting [4]); 8 µg/mL (≈ 9.32 µM) in the assay with K. pneumoniae (setting [5]); 64 µg/mL (≈ 74.6 µM) in the assay on K. pneumoniae (setting [6]). Moreover, the MIC was over 64 µg/mL against K. pneumoniae (setting [7]); 16 µg/mL (≈ 18.6 µM) against S. aureus (setting [8]); 16 µg/mL (≈ 18.6 µM) against S. aureus (setting [9]); over 64 µg/mL with S. aureus (setting [10]); 16 µg/mL (≈ 18.6 µM) with S. aureus (setting [11]); 16 µg/mL (≈ 18.6 µM) against A. baumannii (setting [12]). In addition, the MIC against A. baumannii (setting [13]) is 32 µg/mL (≈ 37.3 µM); against A. baumannii (setting [14]) it was over 64 µg/mL; with P. aeruginosa (setting [15]) it was over 64 µg/mL; in the assay on P. aeruginosa (setting [16]), over 64 µg/mL; in the assay with P. aeruginosa (setting [17]), 32 µg/mL (≈ 37.3 µM).
Take `CCC1OC(=O)C(C)C(=O)C(C)C(OC2OC(C)CC(N(C)CCO)C2O)C(C)(OC)CC(C)CN(C)C(C)C2N(CCCCn3cc(-c4cccc(N)c4)nn3)C(=O)OC12C` (centres unmarked) [FSM-120419]: the MIC is over 64 µg/mL against E. coli (setting [1]); over 64 µg/mL against E. coli (setting [2]); over 64 µg/mL against E. coli (setting [3]); 4 µg/mL (≈ 4.59 µM) in the assay with E. coli (setting [4]); 16 µg/mL (≈ 18.3 µM) against K. pneumoniae (setting [5]); over 64 µg/mL against K. pneumoniae (setting [6]). For the same compound, the MIC against K. pneumoniae (setting [7]) was over 64 µg/mL; in the assay with S. aureus (setting [8]), 32 µg/mL (≈ 36.7 µM); against S. aureus (setting [9]), 32 µg/mL (≈ 36.7 µM); in the assay on S. aureus (setting [10]) it was over 64 µg/mL; in the assay on S. aureus (setting [11]), 32 µg/mL (≈ 36.7 µM); with A. baumannii (setting [12]), over 64 µg/mL. Moreover, the MIC against A. baumannii (setting [13]), against A. baumannii (setting [14]), with P. aeruginosa (setting [15]), against P. aeruginosa (setting [16]) and against P. aeruginosa (setting [17]) was over 64 µg/mL throughout.
Consider `CCC1OC(=O)C(C)C(=O)C(C)C(OC2OC(C)CC(N(C)CCCS(C)(=O)=O)C2O)C(C)(OC)CC(C)CNC(C)C2N(CCCCn3cc(-c4cccc(N)c4)nn3)C(=O)OC12C` (centres unmarked) [FSM-120420], for which the MIC against E. coli (setting [1]) is 64 µg/mL (≈ 68.5 µM); in the assay on E. coli (setting [2]), 32 µg/mL (≈ 34.3 µM); against E. coli (setting [3]) it was over 64 µg/mL; in the assay on E. coli (setting [4]), 2 µg/mL (≈ 2.14 µM); against K. pneumoniae (setting [5]) it was 16 µg/mL (≈ 17.1 µM); against K. pneumoniae (setting [6]), over 64 µg/mL. Besides, the MIC against K. pneumoniae (setting [7]) is over 64 µg/mL; with S. aureus (setting [8]), 32 µg/mL (≈ 34.3 µM); against S. aureus (setting [9]), 32 µg/mL (≈ 34.3 µM); against S. aureus (setting [10]), over 64 µg/mL; against S. aureus (setting [11]) it was 64 µg/mL (≈ 68.5 µM); against A. baumannii (setting [12]) it was 32 µg/mL (≈ 34.3 µM). The MIC is 64 µg/mL (≈ 68.5 µM) against A. baumannii (setting [13]); over 64 µg/mL in the assay with A. baumannii (setting [14]); over 64 µg/mL with P. aeruginosa (setting [15]); over 64 µg/mL against P. aeruginosa (setting [16]); 64 µg/mL (≈ 68.5 µM) in the assay with P. aeruginosa (setting [17]).
Turning to `CCC1OC(=O)C(C)C(=O)C(C)C(OC2OC(C)CC(N(C)CCCS(C)(=O)=O)C2O)C(C)(OC)CC(C)CN(C)C(C)C2N(CCCCn3cc(-c4cccc(N)c4)nn3)C(=O)OC12C` (centres unmarked) [FSM-120421], the MIC against E. coli (setting [1]) is over 64 µg/mL; against E. coli (setting [2]), over 64 µg/mL; with E. coli (setting [3]), over 64 µg/mL; with E. coli (setting [4]) it was 64 µg/mL (≈ 67.5 µM); with K. pneumoniae (setting [5]), 64 µg/mL (≈ 67.5 µM); against K. pneumoniae (setting [6]), over 64 µg/mL. The MIC with K. pneumoniae (setting [7]), in the assay on S. aureus (setting [8]), against S. aureus (setting [9]), against S. aureus (setting [10]), against S. aureus (setting [11]) and with A. baumannii (setting [12]) was over 64 µg/mL each time. In addition, the MIC against A. baumannii (setting [13]), in the assay on A. baumannii (setting [14]), against P. aeruginosa (setting [15]), against P. aeruginosa (setting [16]) and against P. aeruginosa (setting [17]) was over 64 µg/mL each time.
